Data published in patent US9961897B2, “Fungicidal pyrazoles” (E. I. DU PONT DE NEMOURS AND COMPANY, priority 2013, dated 2018).
Marks after values point to notes of the source that are not given here.

Assays:
Type in all cases: in vivo
[1] = test system: Puccinia recondita f. sp. tritici; experiment: Test A: wheat leaf rust, preventive spray on wheat seedlings, visual disease rating; conditions: 100 = 100% disease control, 0 = no control
Excerpt: (§1) General protocol for preparing test suspensions for Tests A-E: the test compounds were first dissolved in acetone in an amount equal to 3% of the final volume and then suspended at the desired concentration (in ppm) in acetone and purified water (50/50 mix by volume) containing 250 ppm of the surfactant Trem® 014 (polyhydric alcohol esters). The resulting test suspensions were then used in Tests A-E. Spraying a 200 ppm test suspension to the point of run-off on the test plants was the equivalent of a rate of 800 g/ha.
The test suspension was sprayed to the point of run-off on wheat seedlings. The following day the seedlings were inoculated with a spore suspension of Puccinia recondita f. sp. tritici (the causal agent of wheat leaf rust) and incubated in a saturated atmosphere at 20° C. for 24 h, and then moved to a growth chamber at 20° C. for 6 days, after which time visual disease ratings were made.
(§2) Results for Tests A-E are given in Table A. In the Table, a rating of 100 indicates 100% disease control and a rating of 0 indicates no disease control (relative to the controls). All results are for compounds tested at 200 ppm except where followed by an asterisk “*” which indicates the compound was tested at 250 ppm. A dash (-) indicates no test results.

Botrytis cinerea = experiment: Test C: tomato Botrytis, preventive spray on tomato seedlings, visual disease rating; conditions: 100 = 100% disease control, 0 = no control
Excerpt: as §1
(§3) The test suspension was sprayed to the point of run-off on tomato seedlings. The following day the seedlings were inoculated with a spore suspension of Botrytis cinerea (the causal agent of tomato Botrytis) and incubated in a saturated atmosphere at 20° C. for 48 h, and then moved to a growth chamber at 24° C. for 3 days, after which time visual disease ratings were made.
as §2

[2] = test system: Blumeria graminis f. sp. tritici; experiment: Test D: wheat powdery mildew, preventive spray on wheat seedlings, visual disease rating; conditions: 100 = 100% disease control, 0 = no control
Excerpt: as §1
The test suspension was sprayed to the point of run-off on wheat seedlings. The following day the seedlings were inoculated with a spore dust of Blumeria graminis f. sp. tritici, also known as Erysiphe graminis f. sp. tritici (the causal agent of wheat powdery mildew) and incubated in a growth chamber at 20° C. for 8 days, after which time visual disease ratings were made.
as §2

Septoria nodorum = experiment: Test E: Septoria glume blotch, preventive spray on wheat seedlings, visual disease rating; conditions: 200 ppm test suspension sprayed to run-off on wheat seedlings; 100 = 100% disease control, 0 = no control
Excerpt: as §1
as §3, with “wheat” for “tomato”, “Septoria nodorum” for “Botrytis cinerea”, “Septoria glume blotch)” for “tomato Botrytis)”, “24°” for “20°”, “20°” for “24°”, “9” for “3”
as §2

Septoria tritici = experiment: Test B: wheat leaf blotch, preventive spray on wheat seedlings, visual disease rating; conditions: 100 = 100% disease control, 0 = no control
Excerpt: as §1
as §3, with “wheat” for “tomato”, “Septoria tritici” for “Botrytis cinerea”, “wheat leaf blotch)” for “tomato Botrytis)”, “24°” for “20°”, “20°” for “24°”, “19” for “3”
as §2

[3] = 200 ppm test suspension sprayed to run-off on wheat seedlings
[4] = 200 ppm test suspension sprayed to run-off on tomato seedlings
[5] = 250 ppm (asterisk) test suspension sprayed to run-off on wheat seedlings
[6] = 250 ppm (asterisk) test suspension sprayed to run-off on tomato seedlings

Structure (SMILES) | Test A disease control rating [1, 3] | Test C disease control rating (Botrytis cinerea; [4]) | Test D disease control rating [2, 3] | Test E disease control rating (Septoria nodorum) | Test B disease control rating (Septoria tritici; [3]) | Test D disease control rating [2, 5] | Test A disease control rating [1, 5] | Test B disease control rating (Septoria tritici; [5]) | Test C disease control rating (Botrytis cinerea; [6])
Cc1nn(C)c(-c2c(F)cc(/C=C/C3CC3)cc2F)c1C(O)c1ccc(F)cc1Cl (stereo not drawn) [Compound 1] | 68% | 0% | 98% | 0% |  |  |  |  | 
Cc1nn(C)c(-c2c(F)cc(C#CC3CC3)cc2F)c1C(O)c1ccc(F)cc1Cl (stereo not drawn) [Compound 2] | 95% | 98% | 98% | 100% |  |  |  |  | 
Cc1nn(C)c(-c2c(F)cc(-n3cccn3)cc2F)c1C(O)c1ccc(F)cc1Cl (stereo not drawn) [Compound 3, α-(2-chloro-4-fluorophenyl)-5-[2,6-difluoro-4-(1H-pyrazol-1-yl)phenyl]-1,3-dimethyl-1H-pyrazole-4-methanol] | 68% | 59% | 81% | 98% |  |  |  |  | 
Cc1nn(C)c(-c2c(F)cc(-n3ccc(C(F)(F)F)n3)cc2F)c1C(O)c1ccc(F)cc1Cl (stereo not drawn) [Compound 4] | 0% | 0% | 0% | 0% |  |  |  |  | 
C#CCOc1cc(F)c(-c2c(C(O)c3ccc(F)cc3Cl)c(C)nn2C)c(F)c1 (stereo not drawn) [Compound 5] | 100% | 98% | 99% |  | 99% |  |  |  | 
C=CCOc1cc(F)c(-c2c(C(O)c3ccc(F)cc3Cl)c(C)nn2C)c(F)c1 (stereo not drawn) [Compound 6] | 99% | 99% | 95% |  | 99% |  |  |  | 
Cc1nn(C)c(-c2c(F)cc(C3CO3)cc2F)c1C(O)c1ccc(F)cc1Cl (stereo not drawn) [Compound 8] | 90% | 30% | 27% | 0% | 95% |  |  |  | 
Cc1nn(C)c(-c2c(F)cc(OCCC(C)C)cc2F)c1C(O)c1ccc(F)cc1Cl (stereo not drawn) [Compound 9, α-(2-chloro-4-fluorophenyl)-5-[2,6-difluoro-4-(3-methylbutoxy)phenyl]-1,3-dimethyl-1H-pyrazole-4-methanol] | 9% | 0% |  | 0% | 87% | 21* % |  |  | 
Cc1nn(C)c(-c2c(F)cc(OCC3CC3)cc2F)c1C(O)c1ccc(F)cc1Cl (stereo not drawn) [Compound 10, α-(2-chloro-4-fluorophenyl)-5-[4-(cyclopropylmethoxy)-2,6-difluorophenyl]-1,3-dimethyl-1H-pyrazole-4-methanol] | 99% | 12% | 94% | 100% | 96% |  |  |  | 
Cc1nn(C)c(-c2c(F)cc(/C=N/O)cc2F)c1C(O)c1ccc(F)cc1Cl (stereo not drawn) [Compound 11] | 86% | 15% | 69% | 0% | 98% |  |  |  | 
CCCCOc1cc(F)c(-c2c(C(O)c3ccc(F)cc3Cl)c(C)nn2C)c(F)c1 (stereo not drawn) [Compound 13] | 0% | 0% | 98% |  | 98% |  |  |  | 
CO/N=C/c1cc(F)c(-c2c(C(O)c3ccc(F)cc3Cl)c(C)nn2C)c(F)c1 (stereo not drawn) [Compound 14] | 100% | 39% | 95% |  | 99% |  |  |  | 
Cc1nn(C)c(-c2c(F)cc(OCC3CCCO3)cc2F)c1C(O)c1ccc(F)cc1Cl (stereo not drawn) [Compound 15] |  |  |  |  |  | 95* % | 98* % | 100* % | 98* %
Cc1nn(C)c(-c2c(F)cc(OCC3OCCO3)cc2F)c1C(O)c1ccc(F)cc1Cl (stereo not drawn) [Compound 19] |  |  |  |  |  | 95* % | 100* % | 99* % | 100* %
